Literature values as cited in patent US6468258B1, “Plastic compositions including vitamin E for medical containers and methods for providing such compositions and containers” (Baxter International Inc., priority 1997, dated 2002).

Test system: red blood cells
Settings: Vitamin E added directly to red blood cells; as reported in U.S. Pat. No. 5,037,419

Vitamin E
hemolysis: lower hemolysis
